Literature values as cited in US10172913B2, “Orally disintegrating solid pharmaceutical dosage unit containing a partus control substance” (Oxytone Bioscience B.V., priority 2014, dated 2019).
Bridge positions count the residues as written; N and C are the ends. Square brackets hold non-standard residues; d marks the D form. Peptide text beside a SMILES is read from it. Orn = NCCC[C@H](N)C(=O)O; Mpa = O=C(O)CCS

Tests used:
[1] = in vivo
[2] = lyophilized

Row | half-life in the blood [1] | time stable at room temperature [2] | Structure (SMILES)
1 | about three |  | CC[C@H](C)[C@@H]1NC(=O)[C@H](Cc2ccc(O)cc2)NC(=O)[C@@H](N)CSSC[C@@H](C(=O)N2CCC[C@H]2C(=O)N[C@@H](CC(C)C)C(=O)NCC(N)=O)NC(=O)[C@H](CC(N)=O)NC(=O)[C@H](CCC(N)=O)NC1=O [Oxytocin, cysteine-tyrosine-isoleucine-glutamine-asparagine-cysteine-proline-leucine-glycine-amide]
2 |  | 3 weeks | CCOc1ccc(C[C@H]2NC(=O)CCSSC[C@@H](C(=O)N3CCC[C@H]3C(=O)N[C@@H](CCCN)C(=O)NCC(N)=O)NC(=O)[C@H](CC(N)=O)NC(=O)[C@H]([C@@H](C)O)NC(=O)[C@H]([C@@H](C)CC)NC2=O)cc1 [atosiban] ([Mpa][dY](Et)ITNCP[Orn]G-NH2; disulfide 1-6)
